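Assay format: 96-well plates, 48-hour exposure. GI50 marks 50% less growth.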 The source made the active and inactive calls. Rule as the data show it: active = GI50 up to about 1.1 µM and inactive = higher.
Legend:
Test in all cases: DTP human tumour cell line panel, 48 h
OVCAR-3 = tested on: OVCAR-3
HL-60 = tested on: HL-60
MOLT-4 = tested on: MOLT-4
A498 = tested on: A498
COLO 205 = tested on: COLO 205
SF-295 = tested on: SF-295
Malme-3M = tested on: Malme-3M
SK-MEL-5 = tested on: SK-MEL-5
SNB-19 = tested on: SNB-19
K562 = tested on: K562
HCT-15 = tested on: HCT-15
OVCAR-8 = tested on: OVCAR-8
SK-MEL-2 = tested on: SK-MEL-2
EKVX = tested on: EKVX
KM12 = tested on: KM12
NCI-H23 = tested on: NCI-H23
MCF7 = tested on: MCF7
NCI-H460 = tested on: NCI-H460
U-251 = tested on: U-251
SNB-75 = tested on: SNB-75

SMILES	GI50 (OVCAR-3)	GI50 (HL-60)	GI50 (MOLT-4)	GI50 (A498)	GI50 (COLO 205)	GI50 (SF-295)	GI50 (Malme-3M)	GI50 (SK-MEL-5)	GI50 (SNB-19)	GI50 (K562)	GI50 (HCT-15) [µM]	GI50 (OVCAR-8)	GI50 (SK-MEL-2)	GI50 (EKVX)	GI50 (KM12)	GI50 (NCI-H23)	GI50 (MCF7)	GI50 (NCI-H460)	GI50 (U-251)	GI50 (SNB-75)
COC1C(O)CC(OC2CC(Oc3cc4cc5c(c(O)c4c(O)c3C)C(=O)[C@@H](OC3CC(OC4CC(OC6CC(C)(O)C(OC(C)=O)C(C)O6)C(O)C(C)O4)C(O)C(C)O3)[C@H]([C@H](OC)C(=O)[C@@H](O)[C@@H](C)O)C5)OC(C)C2OC(C)=O)OC1C (stereo not given in full) [CHROMOMYCIN]	< 0.01 µM (active)	0.0127 µM (active)	< 0.01 µM (active)	0.0038 µM (active)	< 0.01 µM (active)	0.0139 µM (active)	0.00328 µM (active)	< 0.01 µM (active)	0.00424 µM (active)	0.00566 µM (active)	0.0138	< 0.01 µM (active)	0.00361 µM (active)	0.00532 µM (active)	< 0.01 µM (active)	< 0.01 µM (active)	0.00312 µM (active)	< 0.0133 µM (active)	0.00344 µM (active)	< 0.01 µM (active)
CCCC[C@H]1[C@@H](OCOc2ccccc2)COC(=O)N1[C@H](C)c1ccccc1	14.7 µM (inactive)	18 µM (inactive)	4.54 µM (inactive)	12.9 µM (inactive)	25.9 µM (inactive)	11.9 µM (inactive)	15.7 µM (inactive)	4.03 µM (inactive)	21.3 µM (inactive)	7.18 µM (inactive)	15.9	> 49.2 µM (inactive)	15.1 µM (inactive)	25.4 µM (inactive)	12.9 µM (inactive)	18.2 µM (inactive)	11.2 µM (inactive)	12.6 µM (inactive)	14.7 µM (inactive)	10.8 µM (inactive)
CC1=C[C@]2(CC(C)C3C(CC4(C)C5CCC6C(C)(C)C(=O)CC[C@@]67C[C@@]57CC[C@]34C)O2)OC1=O (stereo not given in full)	–	0.968 µM (active)	10.7 µM (inactive)	23.7 µM (inactive)	36.9 µM (inactive)	25.3 µM (inactive)	44.4 µM (inactive)	2.65 µM (inactive)	15.7 µM (inactive)	4.03 µM (inactive)	7.64	25.2 µM (inactive)	34.4 µM (inactive)	44.8 µM (inactive)	18.9 µM (inactive)	7.64 µM (inactive)	–	19.4 µM (inactive)	14.6 µM (inactive)	16.8 µM (inactive)
CCOC(C)OC1CC(n2cc(C)c(=O)[nH]c2=O)OC1CO (stereo not given)	> 100 µM (inactive)	> 100 µM (inactive)	> 100 µM (inactive)	> 100 µM (inactive)	> 100 µM (inactive)	> 100 µM (inactive)	> 100 µM (inactive)	–	> 100 µM (inactive)	> 100 µM (inactive)	> 100	> 100 µM (inactive)	> 100 µM (inactive)	> 100 µM (inactive)	> 100 µM (inactive)	> 100 µM (inactive)	–	> 100 µM (inactive)	> 100 µM (inactive)	–
CCN(CC)CCOC(=O)c1ccc(N)cc1.CCOC(=O)Nc1ccc(S(=O)(=O)OC)cc1.CCOC(=O)Nc1ccc(S(=O)(=O)OC)cc1.Nc1ccc(C(=O)O)c(O)c1	> 100 µM (inactive)	> 100 µM (inactive)	> 100 µM (inactive)	> 100 µM (inactive)	–	> 100 µM (inactive)	> 100 µM (inactive)	> 100 µM (inactive)	> 100 µM (inactive)	> 100 µM (inactive)	> 100	> 100 µM (inactive)	> 100 µM (inactive)	> 100 µM (inactive)	> 100 µM (inactive)	> 100 µM (inactive)	–	> 100 µM (inactive)	> 100 µM (inactive)	40.2 µM (inactive)
CCOC(=O)C(O)(NC(=O)c1ccc(F)cc1)C(F)(F)F (stereo not given)	> 100 µM (inactive)	> 100 µM (inactive)	> 100 µM (inactive)	–	> 100 µM (inactive)	> 100 µM (inactive)	> 100 µM (inactive)	> 100 µM (inactive)	> 100 µM (inactive)	> 100 µM (inactive)	> 100	> 100 µM (inactive)	> 100 µM (inactive)	> 100 µM (inactive)	> 100 µM (inactive)	> 100 µM (inactive)	> 100 µM (inactive)	–	> 100 µM (inactive)	> 100 µM (inactive)
C[n+]1c2ccccc2c(C(=O)NC(CCCNC(=N)N)C(=O)O)c2ccccc21 (stereo not given)	> 100 µM (inactive)	–	> 100 µM (inactive)	> 100 µM (inactive)	> 100 µM (inactive)	> 100 µM (inactive)	> 100 µM (inactive)	> 100 µM (inactive)	> 100 µM (inactive)	> 100 µM (inactive)	> 100	> 100 µM (inactive)	> 100 µM (inactive)	> 100 µM (inactive)	> 100 µM (inactive)	> 100 µM (inactive)	> 100 µM (inactive)	> 100 µM (inactive)	> 100 µM (inactive)	> 100 µM (inactive)
N#CCCC1(CCC#N)CCCCCCC(CCC#N)(CCC#N)C(O)C1O (stereo not given)	> 100 µM (inactive)	–	–	> 100 µM (inactive)	41.9 µM (inactive)	> 100 µM (inactive)	> 100 µM (inactive)	> 100 µM (inactive)	> 100 µM (inactive)	> 100 µM (inactive)	> 100	> 100 µM (inactive)	> 100 µM (inactive)	–	> 100 µM (inactive)	> 100 µM (inactive)	> 100 µM (inactive)	> 100 µM (inactive)	> 100 µM (inactive)	> 100 µM (inactive)
Cc1cccc(N2C(=O)C3c4[nH]c5ccc(C)cc5c4C4CCC(C(C)(C)C)CC4C3C2=O)c1 (stereo not given)	13.6 µM (inactive)	17.7 µM (inactive)	8.97 µM (inactive)	–	17.4 µM (inactive)	19.4 µM (inactive)	24.3 µM (inactive)	32.5 µM (inactive)	25.2 µM (inactive)	23.9 µM (inactive)	53.7	19 µM (inactive)	38.1 µM (inactive)	10.4 µM (inactive)	15.8 µM (inactive)	26.1 µM (inactive)	–	13.3 µM (inactive)	23.6 µM (inactive)	–
CCOC(=O)CCc1c(C)c2c(OC(C)=O)cc(OC(C)=O)cc2oc1=O	27.4 µM (inactive)	40.2 µM (inactive)	–	–	> 100 µM (inactive)	56.5 µM (inactive)	20.7 µM (inactive)	–	65.9 µM (inactive)	–	–	69.3 µM (inactive)	28.4 µM (inactive)	58.3 µM (inactive)	37.4 µM (inactive)	44.8 µM (inactive)	–	32.5 µM (inactive)	55.6 µM (inactive)	21.7 µM (inactive)
Cc1[nH]c(=O)[nH]c(=O)c1C(=O)N(CCO)Cc1ccccc1	> 100 µM (inactive)	> 100 µM (inactive)	> 100 µM (inactive)	> 100 µM (inactive)	22.3 µM (inactive)	35.5 µM (inactive)	> 100 µM (inactive)	–	> 100 µM (inactive)	> 100 µM (inactive)	> 100	–	> 100 µM (inactive)	> 100 µM (inactive)	> 100 µM (inactive)	33 µM (inactive)	> 100 µM (inactive)	> 100 µM (inactive)	> 100 µM (inactive)	–
